The text below walks through data of US11453667B2, “Pyridone-pyrimidine derivative acting as KRASG12C mutein inhibitor” (MEDSHINE DISCOVERY INC., priority 2018, dated 2022).

What is called IC50 is the midpoint of a concentration-inhibition curve. Higher therefore signals weaker potency. As usually defined, the TGI is how far tumour growth fell short of that in controls.

Test [1] concerns MIA PaCa2 human pancreatic cancer cells with KRAS G12C mutation. Description: Cell experiment: anti-proliferative activity, CellTiter-Glo, MIA PaCa2. Type of test: cell-based. The following applies: 5 days culture. The procedure:
(§1) This experiment is intended to verify that the compounds of the present invention have an inhibitory effect on the proliferation of NCI-H358 human non-small cell lung cancer cells with KRAS G12C mutation, MIA PaCa2 human pancreatic cancer cells with KRAS G12C mutation and wild-type A375 human malignant melanoma cells.
(§2) 40 μl of phosphate buffer was added to the peripheral wells of three 384-well microplates respectively, and 40 μl of cell suspension to be tested was added to the other wells of each plate respectively (plate 1: NCI-H358 cell suspension containing 500 NCI-H358 cells; plate 2: MIAPaCa2 cell suspension containing 300 MIAPaCa2 cells; plate 3: A375 cell suspension containing 300 A375 cells). The three cell plates were then placed in a carbon dioxide incubator and incubated overnight. Echo was used to perform a 3-fold gradient dilution of the compounds to be tested, and each compound was diluted with 10 concentration gradients (diluted from 50 μM to 0.003 μM), 100 nl of which was respectively added to the corresponding wells of the cell plates; after dosing, 40 μL of phosphate buffer was added to each well of rows A and P and columns 1 and 24, and then the cell plates were put back to the carbon dioxide incubator for culturing for 5 days. 20 μl of Promega CellTiter-Glo reagent per well was added to the cell plates, which was shaken at room temperature for 10 minutes in the dark to stabilize the luminescence signal. A PerkinElmer Envision multi-label analyzer was used for reading.
(§3) Data analysis: IC50 results were analyzed by GraphPad Prism 5.0 software […].

In test [2] the test system is NCI-H358 human non-small cell lung cancer cells with KRAS G12C mutation. Description: Cell experiment: anti-proliferative activity, CellTiter-Glo, NCI-H358. Type of test: cell-based. The following applies: 5 days culture. The procedure: as §1, §2, §3
For test [3], the system named is wild-type A375 human malignant melanoma cells. Put plainly: Cell experiment: anti-proliferative activity, CellTiter-Glo, A375. Type of test: cell-based. The following applies: 5 days culture. The procedure:
as §1, §2, §3
In general terms: In ATP-based viability assays light output follows the ATP content of the culture.

The subject of test [4] is human non-small cell lung cancer NCI-H358. Description: In vivo drug efficacy test (2): subcutaneous xenograft tumor model. The following applies: 100 mg/kg (0-6 days) + 50 mg/kg (7-20 days). Set-up: species or system BALB/c nude mice. The procedure: To evaluate the in vivo efficacy of the test compounds in a subcutaneous xenograft tumor model of human non-small cell lung cancer NCI-H358.
BALB/c nude mice, female, 6-8 weeks old, weighing 18-21 grams. A total of 100 were required. They were provided by Shanghai Lingchang Experimental Animal Co., Ltd ( ? ? ). NCI-H358 tumor cells were resuspended in PBS to prepare 0.1 mL (5×10^6) of cell suspension, which was inoculated subcutaneously on the right back of each mouse (5×10^6/mouse) to wait for tumor growth. When the average tumor volume reached about 150-200 mm^3, randomized grouping and administration were performed, and the administration dose was shown in Table 6. The diameter of the tumor was measured with vernier calipers twice a week. The formula for calculating the tumor volume is: V=0.5a×b^2, wherein a and b represent the long and short diameters of the tumor, respectively. The tumor suppressive effect of the compounds was evaluated by TGI (%). TGI (%) reflects the tumor growth inhibition rate. Calculation of TGI (%): TGI (%)=[(1−(average tumor volume at the end of administration in a treatment group−average tumor volume at the beginning of administration in the treatment group))/(average tumor volume at the end of treatment in the solvent control group−average tumor volume at the beginning of treatment in the solvent control group)]×100%.

The mark [5] stands for this setting: Homo sapiens, MIA PaCa-2, 120 h.

In the case of `C=CC(=O)N1CCN(c2nc(N3CC(N(CC)CC)C3)nc3c(=O)n(-c4c(O)cccc4F)c(C(F)(F)F)cc23)CC1` [Formate of example 8], the IC50 came out at 2.31 µM in test [1] (setting [5]); 1.41 µM in test [2] (Homo sapiens, NCI-H358, 120 h); 39.1 µM in test [3] (Homo sapiens, A-375, 120 h).

Regarding `C=CC(=O)N1CCN(c2nc(N3CC(N(CC)CC)C3)nc3c(=O)n(-c4c(C)ccc(N)c4C)c(C(F)(F)F)cc23)CC1` [Example 35], half-maximal inhibition in test [1] (IC50) was put at 12 µM.

For `C=CC(=O)N1CCN(c2ncnc3c(=O)n(-c4c(N)c(Cl)cc(Cl)c4F)c(C(F)(F)F)cc23)[C@H](C)C1` [Example 52], the IC50 in test [2] came to 0.06 µM; in test [3], 7.39 µM.

For `C=CC(=O)N1CCN(c2nc(N3CC(N(CC)CC)C3)nc3c(=O)n(-c4c(O)c(Cl)cc(Cl)c4F)c(C(F)(F)F)cc23)CC1` [Example 46], the IC50 is 1.79 µM in test [1] (setting [5]); 1.95 µM in test [2] (Homo sapiens, NCI-H358, 120 h); over 50 µM in test [3] (Homo sapiens, A-375, 120 h).

`C=CC(=O)N1CCN(c2ncnc3c(=O)n(-c4c(O)ccc5ccccc45)c(C(F)(F)F)cc23)CC1` [Trifluoroacetate of example 55]: the half-maximal inhibitory concentration (IC50) in test [2] (Homo sapiens, NCI-H358, 120 h) was 4.26 µM; in test [3] (Homo sapiens, A-375, 120 h) it was at least 50 µM.

`C=CC(=O)N1CCN(c2ncnc3c(=O)n(-c4c(N)c(Cl)cc(Cl)c4F)c(C(F)(F)F)cc23)[C@@H](C)C1` (atropisomer, axis not shown) [Example 53]: the IC50 was 2.27 µM in test [2] and 8.91 µM in test [3] (Homo sapiens, A-375, 120 h).

Consider `C=CC(=O)N1CCN(c2nc(N3CC(N(CC)CC)C3)nc3c(=O)n(-c4c(N)c(Cl)cc(Cl)c4F)c(C(F)(F)F)cc23)CC1` (atropisomer, axis not shown) [Example 44], for which the IC50 in test [1] came out at 2.97 µM; in test [2] it was 3.67 µM; in test [3] (Homo sapiens, A-375, 120 h) it was 9.02 µM.

With `C=CC(=O)N1CCN(c2nc(N3CC(N(CC)CC)C3)nc3c(=O)n(-c4c(F)ccc(Cl)c4N)c(C(F)(F)F)cc23)CC1` [Example 41], the IC50 in test [1] (setting [5]) was 0.16 µM; in test [2] (Homo sapiens, NCI-H358, 120 h) it was 0.15 µM; in test [3] (Homo sapiens, A-375, 120 h), 12.2 µM.

`C=CC(=O)N1CCN(c2nc(N3CC(N(CC)CC)C3)nc3c(=O)n(-c4c(N)cccc4F)c(C(F)(F)F)cc23)CC1` [Example 33]: the IC50 in test [2] (Homo sapiens, NCI-H358, 120 h) turned out to be 15.8 µM; in test [3] (Homo sapiens, A-375, 120 h), 39.6 µM.

As for `C=CC(=O)N1CCN(c2nc(N3CCOCC3)nc3c(=O)n(-c4c(O)cccc4F)c(C(F)(F)F)cc23)CC1` [Example 6], the IC50 turned out to be 12.7 µM in test [1] (setting [5]); 14.6 µM in test [2] (Homo sapiens, NCI-H358, 120 h); 39.9 µM in test [3] (Homo sapiens, A-375, 120 h).

Turning to `C=CC(=O)N1CCN(c2ncnc3c(=O)n(-c4c(N)ccc(Cl)c4F)c(C(F)(F)F)cc23)CC1` [Example 48], the 50% inhibitory concentration (IC50) was found to be 0.13 µM in test [1] (setting [5]); 0.18 µM in test [2] (Homo sapiens, NCI-H358, 120 h); 20.8 µM in test [3] (Homo sapiens, A-375, 120 h).

For `C=CC(=O)N1CCN(c2ncnc3c(=O)n(-c4c(C)ccc5c4cnn5C(C)=O)c(C(F)(F)F)cc23)CC1` [Example 27], the half-maximal inhibitory concentration (IC50) in test [2] (Homo sapiens, NCI-H358, 120 h) is 20.8 µM; in test [3] (Homo sapiens, A-375, 120 h) it was at least 50 µM.

Regarding `C=CC(=O)N1CCN(c2nc(OC)nc3c(=O)n(-c4c(O)cccc4F)c(C(F)(F)F)cc23)CC1` [Example 11], the IC50 in test [2] (Homo sapiens, NCI-H358, 120 h) came to 24 µM; in test [3] (Homo sapiens, A-375, 120 h), 42.2 µM.

On to `C=CC(=O)N1CCN(c2nc(N3CC(N(CC)CC)C3)nc3c(=O)n(-c4c(C)ccc5[nH]ncc45)c(C(F)(F)F)cc23)CC1` [Example 37], for which the IC50 in test [1] (setting [5]) was 1.44 µM; in test [2] (Homo sapiens, NCI-H358, 120 h), 1.05 µM; in test [3] (Homo sapiens, A-375, 120 h) it was 19.7 µM.

With `C=CC(=O)N1CCN(c2nc(Oc3cnn(C)c3)nc3c(=O)n(-c4c(O)cccc4F)c(C(F)(F)F)cc23)CC1` [Example 15], the IC50 is 13.9 µM in test [2] (Homo sapiens, NCI-H358, 120 h) and over 50 µM in test [3] (Homo sapiens, A-375, 120 h).

For the molecule `C=CC(=O)N1CCN(c2nc(N3CC(N(CC)CC)C3)nc3c(=O)n(-c4c(N)c(Cl)cc(Cl)c4F)c(C(F)(F)F)cc23)CC1` (atropisomer, axis not shown) [Example 45], the IC50 in test [1] is 0.01 µM; in test [2], 0.01 µM; in test [3], 6.24 µM.

Take `C=CC(=O)N1CC2CN(c3ncnc4c(=O)n(-c5c(O)cccc5F)c(C(F)(F)F)cc34)CC21` (stereo not shown) [Example 18]: the half-inhibitory concentration (IC50) in test [2] (Homo sapiens, NCI-H358, 120 h) came to 7.18 µM; in test [3] (Homo sapiens, A-375, 120 h), 2.86 µM.

Regarding `C=CC(=O)N1CCN(c2ncnc3c(=O)n(-c4c(N)c(Cl)cc(Cl)c4F)c(C(F)(F)F)cc23)[C@H](C)C1` (atropisomer, axis not shown) [Example 51], the IC50 in test [2] amounted to 2.04 µM; in test [3] (Homo sapiens, A-375, 120 h), 8.82 µM.

On to `C=CC(=O)N1CCN(c2ncnc3c(=O)n(-c4c(O)c(Cl)cc(Cl)c4F)c(C(F)(F)F)cc23)CC1` [Example 50], for which the IC50 in test [1] (setting [5]) is 3.9 µM; in test [2] (Homo sapiens, NCI-H358, 120 h), 5.49 µM; in test [3] (Homo sapiens, A-375, 120 h), over 50 µM.

As to `C=CC(=O)N1CCN(c2ncnc3c(=O)n(-c4c(N)c(Cl)cc(Cl)c4F)c(C(F)(F)F)cc23)[C@@H](C)C1` [Example 54], the half-inhibitory concentration (IC50) was 0.29 µM in test [2] and 6.66 µM in test [3].

As for `C=CC(=O)N1CCN(c2nc(N3CC(N(CC)CC)C3)nc3c(=O)n(-c4c(N)ccc(Cl)c4F)c(C(F)(F)F)cc23)CC1` [Example 42], the IC50 in test [1] (setting [5]) turned out to be 0.02 µM; in test [2] (Homo sapiens, NCI-H358, 120 h), 0.01 µM; in test [3] (Homo sapiens, A-375, 120 h) it was 4.57 µM. Further, the “Tumor volume (day 20)” value in test [4] is 191 mm^3. The inhibition of tumour growth (TGI) in test [4] (day 20) is recorded as 95.51%.

On to `C=CC(=O)N1CCN(c2ncnc3c(=O)n(-c4c(F)cccc4OC)c(C(F)(F)F)cc23)CC1` [Example 1], for which the IC50 turned out to be 5.3 µM in test [2] (Homo sapiens, NCI-H358, 120 h) and 17.8 µM in test [3] (Homo sapiens, A-375, 120 h).

With `C=CC(=O)N1CCN(c2ncnc3c(=O)n(-c4c(C)cccc4O)c(C(F)(F)F)cc23)CC1` [Example 25], half-maximal inhibition in test [1] (setting [5]) (IC50) was put at 15.3 µM.

Regarding `C=CC(=O)N1CCN(c2ncnc3c(=O)n(-c4c(F)ccc(Cl)c4N)c(C(F)(F)F)cc23)CC1` [Example 47], the IC50 came out at 0.82 µM in test [1] (setting [5]); 1 µM in test [2] (Homo sapiens, NCI-H358, 120 h); 27.9 µM in test [3] (Homo sapiens, A-375, 120 h).

Consider `C=CC(=O)N1CCN(c2ncnc3c(=O)n(-c4c(F)cccc4OC(=O)N(C)C)c(C(F)(F)F)cc23)CC1` [Example 22], for which the half-maximal inhibitory concentration (IC50) was 5.12 µM in test [2] (Homo sapiens, 120 h) and 24.4 µM in test [3] (Homo sapiens, A-375, 120 h).

Take `C=CC(=O)N1CCN(c2ncnc3c(=O)n(-c4c(N)cccc4F)c(C(F)(F)F)cc23)CC1` [Example 31]: the IC50 in test [1] (setting [5]) stood at 1.25 µM; in test [2] (Homo sapiens, NCI-H358, 120 h) it was 1.64 µM; in test [3] (Homo sapiens, A-375, 120 h), 33.3 µM.

Consider `C=CC(=O)N1CCN(c2nc(OC3CCN(C)CC3)nc3c(=O)n(-c4c(O)cccc4F)c(C(F)(F)F)cc23)CC1` [Example 12], for which the IC50 in test [2] (Homo sapiens, NCI-H358, 120 h) came out at 14.2 µM; in test [3] (Homo sapiens, A-375, 120 h), 9.89 µM.

`C=CC(=O)N1CCN(c2ncnc3c(=O)n(-c4c(C)ccc5[nH]ncc45)c(C(F)(F)F)cc23)CC1` [Example 28]: the half-maximal inhibitory concentration (IC50) in test [2] (Homo sapiens, NCI-H358, 120 h) was found to be 9.93 µM; in test [3] (Homo sapiens, A-375, 120 h), 36.2 µM.

Take `C=CC(=O)N1CCN(c2ncnc3c(=O)n(-c4c(C)ccc(N)c4C)c(C(F)(F)F)cc23)CC1` [Example 26]: the 50% inhibitory concentration (IC50) in test [2] (Homo sapiens, NCI-H358, 120 h) was found to be 13.3 µM; in test [3] (Homo sapiens, A-375, 120 h), 32.6 µM.
